In PMC11676667, “Pharmacokinetics of Oral Cannabinoid Δ8-Tetrahydrocannabivarin and Its Main Metabolites in Healthy Participants” (Pharmaceuticals, 2024):

Test: Plasma pharmacokinetics after single oral dose of Δ8-THCV in MCT oil (LC-MS/MS, non-compartmental analysis)
Type: in vivo, human
Design: Clast (last quantifiable concentration): unit not given here
Conditions: for Clast (last quantifiable concentration) / tlast (time to last quantifiable concentration) / concentration at 0.5 h / concentration at 1 h / concentration at 2 h / concentration at 4 h / concentration at 6 h / concentration at 8 h: plasma; for plasma concentration: Predose; for concentration at 0.5 h / concentration at 1 h / concentration at 2 h / concentration at 4 h / concentration at 6 h / concentration at 8 h: human, oral
Method: The study was a two-phase, dose-ranging, placebo-controlled trial in 21 healthy participants to assess the safety, tolerability, PK, and PD of an oral formulation of Δ8-THCV. A detailed description of the study was published elsewhere. The study product was a medium-chain triglyceride (MCT) oil oral formulation of Δ8-THCV at a concentration of 50 mg/mL. […] MCT oil was used as placebo.
Twenty-one participants were enrolled in the clinical study and plasma samples from 15 participants were sent to our laboratory for pharmacokinetic evaluation. Of these, 3 participants were enrolled in Phase 1, an unblinded, placebo-controlled, single ascending dose design and 12 were enrolled in Phase 2, a double-blind, randomized, placebo-controlled, within-participant crossover design. At each study session, participants received one of the following oral doses: placebo, 12.5 mg, 25 mg, 50 mg, 100 mg, and 200 mg of the aforementioned Δ8-THCV formulation in MCT. Study visits were separated by a washout period of a minimum of one week and maximum of 28 days. Participants entered the research facility the night before the session and received the study product in the morning after a standardized high-fat, high-calorie breakfast. PK blood samples included in this analysis were collected prior to dosing and 0.5, 1, 2, 4, 6, and 8 h after dose. Immediately following collection into K2EDTA tubes, blood samples were placed on wet ice, centrifuged, and plasma was immediately frozen at −80 °C until shipment to the bioanalytical laboratory (iC42 Clinical Research and Development, University of Colorado, Aurora, CO, USA) on dry ice.
Plasma samples were analyzed using a validated high-performance liquid chromatography–tandem mass spectrometry (LC-MS/MS) assay. The assay included Δ8-THCV and its main metabolites 11-OH-Δ8-THCV and Δ8-THCV-COOH, Δ9-THCV and its main metabolite Δ9-THCV-COOH, and Δ9-THC and Δ8-THC as well as their main metabolites (Figure 3). The complete list of analyzed compounds and a summary of the key performance parameters of the assay are presented in Appendix A and Table A1 and Table A2. […] For the PK analysis, concentrations below the lower limit of quantification were set to 0 ng/mL. PK parameters were calculated using non-compartmental analysis (Phoenix WinNonlin version 8.4., Certara, Princeton, NJ, USA). Statistical analysis was carried out using GraphPad Prism (version 10, Boston, MA, USA).

[1] = 12.5 mg single oral Δ8-THCV in MCT oil, Mean (±SD)
[2] = 12.5 mg single oral Δ8-THCV in MCT oil, Median (Range)
[3] = 25 mg single oral Δ8-THCV in MCT oil, Mean (±SD)
[4] = 25 mg single oral Δ8-THCV in MCT oil, Median (Range)
[5] = 50 mg single oral Δ8-THCV in MCT oil, Mean (±SD)
[6] = 50 mg single oral Δ8-THCV in MCT oil, Median (Range)
[7] = 100 mg single oral Δ8-THCV in MCT oil, Mean (±SD)
[8] = 100 mg single oral Δ8-THCV in MCT oil, Median (Range)
[9] = 200 mg single oral Δ8-THCV in MCT oil, Mean (±SD)
[10] = 200 mg single oral Δ8-THCV in MCT oil, Median (Range)
[11] = 12.5 mg, 12.5 mg Δ8-THCV dose, Mean (SD, %CV)
[12] = 12.5 mg, 12.5 mg Δ8-THCV dose, Median (IQ Range)
[13] = 25 mg, 25 mg Δ8-THCV dose, Mean (SD, %CV)
[14] = 25 mg, 25 mg Δ8-THCV dose, Median (IQ Range)
[15] = 50 mg, 50 mg Δ8-THCV dose, Mean (SD, %CV)
[16] = 50 mg, 50 mg Δ8-THCV dose, Median (IQ Range)

## CCCc1cc(O)c2c(c1)OC(C)(C)[C@@H]1CC=C(C(=O)O)C[C@@H]21 [Δ8-THCV-COOH, 11-nor-9-carboxy-Δ8-THCV]
[1]
  Clast (last quantifiable concentration): 46.8 (±23)
  tlast (time to last quantifiable concentration): 8 (±0)
[2]
  Clast (last quantifiable concentration): 38.2 (20.1–102)
  tlast (time to last quantifiable concentration): 8 (8–8)
[3]
  Clast (last quantifiable concentration): 71.6 (±33.8)
  tlast (time to last quantifiable concentration): 8 (±0)
[4]
  Clast (last quantifiable concentration): 78.3 (25.5–146)
  tlast (time to last quantifiable concentration): 8 (8–8)
[5]
  Clast (last quantifiable concentration): 166 (±60.3)
  tlast (time to last quantifiable concentration): 8 (±0)
[6]
  Clast (last quantifiable concentration): 148 (78.9–264)
  tlast (time to last quantifiable concentration): 8 (8–8)
[7]
  Clast (last quantifiable concentration): 319 (±118)
  tlast (time to last quantifiable concentration): 8 (±0)
[8]
  Clast (last quantifiable concentration): 304 (153–590)
  tlast (time to last quantifiable concentration): 8 (8–8)
[9]
  Clast (last quantifiable concentration): 917 (±582)
  tlast (time to last quantifiable concentration): 8 (±0)
[10]
  Clast (last quantifiable concentration): 855 (364–2402)
  tlast (time to last quantifiable concentration): 8 (8–8)
12.5 mg Δ8-THCV dose, Mean (SD, %CV)
  plasma concentration: 0.2 (±0.4, 267) ng/mL
12.5 mg Δ8-THCV dose, Median (IQ Range)
  plasma concentration: 0 (0–0) ng/mL
25 mg Δ8-THCV dose, Mean (SD, %CV)
  plasma concentration: 0.3 (±1, 374) ng/mL
25 mg Δ8-THCV dose, Median (IQ Range)
  plasma concentration: 0 (0–0) ng/mL
50 mg Δ8-THCV dose, Mean (SD, %CV)
  plasma concentration: 0.8 (±1.6, 187) ng/mL
50 mg Δ8-THCV dose, Median (IQ Range)
  plasma concentration: 0 (0–0.9) ng/mL
100 mg Δ8-THCV dose, Mean (SD, %CV)
  plasma concentration: 0.5 (±0.8, 166) ng/mL
100 mg Δ8-THCV dose, Median (IQ Range)
  plasma concentration: 0 (0–1) ng/mL
200 mg Δ8-THCV dose, Mean (SD, %CV)
  plasma concentration: 0.1 (±0.3, 387) ng/mL
200 mg Δ8-THCV dose, Median (IQ Range)
  plasma concentration: 0 (0–0) ng/mL
After the 200 mg dose, Δ8-THCV = 1
  median AUClast ratio Δ8-THCV-COOH/Δ8-THCV/11-OH-Δ8-THCV: 36
[11]
  concentration at 0.5 h: 0.4 ng/mL
  concentration at 1 h: 15 ng/mL
  concentration at 2 h: 30.1 ng/mL
  concentration at 4 h: 84.6 ng/mL
  concentration at 6 h: 62.2 ng/mL
  concentration at 8 h: 46.8 ng/mL
[12]
  concentration at 0.5 h: 0 ng/mL
  concentration at 1 h: 3 ng/mL
  concentration at 2 h: 15.5 ng/mL
  concentration at 4 h: 73.1 ng/mL
  concentration at 6 h: 53.3 ng/mL
  concentration at 8 h: 38.2 ng/mL
[13]
  concentration at 0.5 h: 2.7 ng/mL
  concentration at 1 h: 28.5 ng/mL
  concentration at 2 h: 54.6 ng/mL
  concentration at 4 h: 136 ng/mL
  concentration at 6 h: 96.3 ng/mL
  concentration at 8 h: 71.6 ng/mL
[14]
  concentration at 0.5 h: 0 ng/mL
  concentration at 1 h: 7.1 ng/mL
  concentration at 2 h: 55.6 ng/mL
  concentration at 4 h: 108 ng/mL
  concentration at 6 h: 82.6 ng/mL
  concentration at 8 h: 78.3 ng/mL
[15]
  concentration at 0.5 h: 4.7 ng/mL
  concentration at 1 h: 27.3 ng/mL
  concentration at 2 h: 84.1 ng/mL
  concentration at 4 h: 214 ng/mL
  concentration at 6 h: 233 ng/mL
  concentration at 8 h: 166 ng/mL
[16]
  concentration at 0.5 h: 1.3 ng/mL
  concentration at 1 h: 4.8 ng/mL
  concentration at 2 h: 26.5 ng/mL
  concentration at 4 h: 177 ng/mL
  concentration at 6 h: 200 ng/mL
  concentration at 8 h: 148 ng/mL
100 mg, 100 mg Δ8-THCV dose, Mean (SD, %CV)
  concentration at 0.5 h: 13 ng/mL
